Experimental data reported in EPA's CvTdb concentration-time database.

Columns and labels:
Rat [1] = assay: concentration in plasma after dosing; conditions: 0.5 h; dosed: Wyeth-14643; 5.0 mg/kg; oral; Male; Sprague-Dawley
Rat [2] = assay: concentration in plasma after dosing; conditions: 1 h; dosed: Wyeth-14643; 2.0 mg/kg; iv; Male; Sprague-Dawley
Rat [3] = assay: concentration in plasma after dosing; conditions: dosed: Wyeth-14643, 1.0 mg/kg, oral, Male, Sprague-Dawley
Rat [4] = assay: concentration in plasma after dosing; conditions: 0.25 h; dosed: Wyeth-14643; 2.0 mg/kg; iv; Male; Sprague-Dawley
Rat [5] = assay: concentration in heart after dosing; conditions: 40 min; dosed: Bis 2-Chloroethoxy Methane; 20 mg/kg; iv; Female; F344
Rat [6] = assay: concentration in liver after dosing; conditions: 1 h; dosed: Bis 2-Chloroethoxy Methane; 20 mg/kg; iv; Male; F344
Rat [7] = assay: concentration in heart after dosing; conditions: 3 h; dosed: Bis 2-Chloroethoxy Methane; 20 mg/kg; iv; Male; F344
Rat [8] = assay: concentration in thymus after dosing; conditions: 10 min; dosed: Bis 2-Chloroethoxy Methane; 20 mg/kg; iv; Male; F344
Rat [9] = assay: concentration in plasma after dosing; conditions: 3 h; dosed: Bis 2-Chloroethoxy Methane; 40 mg/kg; iv; Male; Harlan Sprague Dawley
Rat [10] = assay: concentration in plasma after dosing; conditions: 3 h; dosed: Bis 2-Chloroethoxy Methane; 20 mg/kg; iv; Female; F344
Rat [11] = assay: concentration in thymus after dosing; conditions: 8 h; dosed: Bis 2-Chloroethoxy Methane; 20 mg/kg; iv; Female; Harlan Sprague-Dawley
Rat [12] = assay: concentration in thymus after dosing; conditions: 10 min; dosed: Bis 2-Chloroethoxy Methane; 20 mg/kg; iv; Female; F344
Rat [13] = assay: concentration in brain after dosing; conditions: 3 h; dosed: Fluorotelomer alcohol 8+2; 24 mg/kg; oral; Male; Harlan Sprague Dawley
Rat [14] = assay: concentration in plasma after dosing; conditions: dosed: Fluorotelomer alcohol 8+2, 40 mg/kg, iv, Female, Harlan Sprague-Dawley
Rat [15] = assay: concentration in plasma after dosing; conditions: dosed: Fluorotelomer alcohol 8+2, 40 mg/kg, iv, Male, F344
Rat [16] = assay: concentration in plasma after dosing; conditions: dosed: Fluorotelomer alcohol 8+2, 12 mg/kg, iv, Male, F344
Rat [17] = assay: concentration in plasma after dosing; conditions: 5 min; dosed: Fluorotelomer alcohol 8+2; 12 mg/kg; iv; Male; F344
Rat [18] = assay: concentration in plasma after dosing; conditions: 6 h; dosed: Di-n-butyl phthalate; 100 mg/kg; oral; Male; Sprague-Dawley
Rat [19] = assay: concentration in brain after dosing; conditions: 24 h; dosed: Perfluorodecanoic acid; 10 mg/kg; oral; Male; Harlan Sprague Dawley
Rat [20] = assay: concentration in liver after dosing; conditions: 1848 h; dosed: Perfluorodecanoic acid; 10 mg/kg; oral; Male; Harlan Sprague Dawley
Rat [21] = assay: concentration in plasma after dosing; conditions: dosed: Perfluorodecanoic acid, 2 mg/kg, iv, Male, F344
Rat [22] = assay: concentration in kidney after dosing; conditions: 864 h; dosed: Perfluorodecanoic acid; 10 mg/kg; oral; Female; Harlan Sprague Dawley
Rat [23] = assay: concentration in plasma after dosing; conditions: dosed: Perfluorodecanoic acid, 2 mg/kg, iv, Male, F344; remark: listed apart in the source
Rat [24] = assay: concentration in plasma after dosing; conditions: 6 h; dosed: Primidone; 130 mg/kg; oral; Female; F344
Rat [25] = assay: concentration in plasma after dosing; conditions: 12 h; dosed: Primidone; 80 mg/kg; oral; Female; F344
Rat [26] = assay: concentration in plasma after dosing; conditions: 9 h; dosed: Primidone; 130 mg/kg; oral; Male; F344
Rat [27] = assay: concentration in liver after dosing; conditions: 4 h; dosed: Thiodiglycolic Acid; 20 mg/kg; iv; Female; Harlan Sprague Dawley
Rat [28] = assay: concentration in heart after dosing; conditions: 40 min; dosed: Thiodiglycolic Acid; 20 mg/kg; iv; Female; Harlan Sprague Dawley
Rat [29] = assay: concentration in liver after dosing; conditions: 3 h; dosed: Thiodiglycolic Acid; 20 mg/kg; iv; Female; Harlan Sprague Dawley
Rat [30] = assay: concentration in heart after dosing; conditions: 10 min; dosed: Thiodiglycolic Acid; 20 mg/kg; iv; Female; Harlan Sprague Dawley
Rat [31] = assay: concentration in liver after dosing; conditions: 2 h; dosed: Thiodiglycolic Acid; 20 mg/kg; iv; Male; Harlan Sprague Dawley
Rat [32] = assay: concentration in plasma after dosing; conditions: 4 h; dosed: Thiodiglycolic Acid; 20 mg/kg; iv; Female; Harlan Sprague Dawley
Rat [33] = assay: concentration in plasma after dosing; conditions: 1 h; dosed: Thiodiglycolic Acid; 20 mg/kg; iv; Female; Harlan Sprague Dawley
Rat [34] = assay: concentration in thymus after dosing; conditions: 20 min; dosed: Thiodiglycolic Acid; 20 mg/kg; iv; Female; Harlan Sprague Dawley
Rat [35] = assay: concentration in thymus after dosing; conditions: 6.667 h; dosed: Thiodiglycolic Acid; 20 mg/kg; iv; Female; Harlan Sprague Dawley
Rat [36] = assay: concentration in plasma after dosing; conditions: dosed: dichloroacetic acid, 10 mg/kg, oral, Male, Harlan Sprague Dawley
Rat [37] = assay: concentration in plasma after dosing; conditions: dosed: dichloroacetic acid, 100 mg/kg, oral, Male, F344

## Cc1cccc(Nc2cc(Cl)nc(SCC(=O)O)n2)c1C
Rat [1]
  concentration in plasma: 3830 ng/mL
Rat [2]
  concentration in plasma: 2380 ng/mL
Rat [3]; 0.5 h
  concentration in plasma: 1180 ng/mL
Rat [3]; 6 h
  concentration in plasma: 202 ng/mL
Rat [4]
  concentration in plasma: 9460 ng/mL

## ClCCOCOCCCl [Bis 2-Chloroethoxy Methane]
Rat [5]
  concentration in heart: 3630 ng/g
Rat [6]
  concentration in liver: 2410 ng/g
Rat [7]
  concentration in heart: 179 ng/g
Rat [8]
  concentration in thymus: 34400 ng/g
Rat [9]
  concentration in plasma: 362 ng/mL
Rat [10]
  concentration in plasma: 87.3 ng/mL
Rat [11]
  concentration in thymus: 13.2 ng/g
Rat [12]
  concentration in thymus: 50600 ng/g

## OCCC(F)(F)C(F)(F)C(F)(F)C(F)(F)C(F)(F)C(F)(F)C(F)(F)C(F)(F)F [Fluorotelomer alcohol 8+2]
Rat [13]
  concentration in brain: 1780 ng/g
Rat [14]; 0.75 h
  concentration in plasma: 2220 ng/mL
Rat [14]; 12 h
  concentration in plasma: 28.7 ng/mL
Rat [15]; 0.25 h
  concentration in plasma: 14200 ng/mL
Rat [15]; 6 h
  concentration in plasma: 186 ng/mL
Rat [16]; 0.25 h
  concentration in plasma: 1710 ng/mL
Rat [16]; 24 h
  concentration in plasma: 3.59 ng/mL
Rat [17]
  concentration in plasma: 24300 ng/mL

## CCCCOC(=O)c1ccccc1C(=O)O [Mono-n-butyl phthalate]
Rat [18]
  concentration in plasma: 4950 ng/mL

## O=C(O)C(F)(F)C(F)(F)C(F)(F)C(F)(F)C(F)(F)C(F)(F)C(F)(F)C(F)(F)C(F)(F)F [Perfluorodecanoic acid]
Rat [19]
  concentration in brain: 2840 ng/g
Rat [20]
  concentration in liver: 32000 ng/g
Rat [21]; 12 h
  concentration in plasma: 5770 ng/mL
Rat [21]; 1200 h
  concentration in plasma: 860 ng/mL
Rat [22]
  concentration in kidney: 18600 ng/g
Rat [23]; 12 h
  concentration in plasma: 6270 ng/mL
Rat [23]; 1200 h
  concentration in plasma: 874 ng/mL

## CCC1(c2ccccc2)C(=O)NC(=O)NC1=O [Phenobarbital]
Rat [24]
  concentration in plasma: 2330 ng/mL
Rat [25]
  concentration in plasma: 2260 ng/mL
Rat [26]
  concentration in plasma: 9740 ng/mL

## O=C(O)CSCC(=O)O [Thiodiglycolic Acid]
Rat [27]
  concentration in liver: 3490 ng/g
Rat [28]
  concentration in heart: 3040 ng/g
Rat [29]
  concentration in liver: 3470 ng/g
Rat [30]
  concentration in heart: 9540 ng/g
Rat [31]
  concentration in liver: 80300 ng/g
Rat [32]
  concentration in plasma: 324 ng/mL
Rat [33]
  concentration in plasma: 4150 ng/mL
Rat [34]
  concentration in thymus: 8060 ng/g
Rat [35]
  concentration in thymus: 391 ng/g

## O=C(O)C(Cl)Cl [dichloroacetic acid]
Rat [36]; 10 min
  concentration in plasma: 862 ng/mL
Rat [36]; 50 min
  concentration in plasma: 167 ng/mL
Rat [37]; 0.25 h
  concentration in plasma: 15500 ng/mL
Rat [37]; 6 h
  concentration in plasma: 29500 ng/mL
